Measurements taken from article PMC5209718, “Piscidin-1-analogs with double L- and D-lysine residues exhibited different conformations in lipopolysaccharide but comparable anti-endotoxin activities” (Scientific Reports, 2017).
Converted amounts (≈) assume the structure as drawn. Like-named read-outs stand apart in the source and are kept apart here. Residues, ends and D or L forms follow the SMILES beside them.

Legend:
[1] = test system: B. subtilis (ATCC 6633); assay: microbe, parasite or virus in culture; type: cell-based; conditions: for Minimum inhibitory conc. (MIC) against bacteria 9: ATCC 6633; for MIC: B. subtilis (ATCC 6633), means of three independent experiments each in duplicate ± SD, read-out: Minimum inhibitory conc. (MIC) against bacteria 9
Text: (§1) Piscidin-1 and its analogs were examined for bacterial growth-inhibiting activity in liquid cultures against Gram-positive bacteria including MRSA strains and Gram-negative bacteria (Table 2). […] The therapeutic index is a parameter that signify the specificity or selectivity of antimicrobial agents towards microorganisms over mammalian cells.
(§2) Antibacterial assays with all the peptides were done in 96-well microtiter plates against different Gram-positive, Gram-negative and resistant bacteria as described earlier.

[2] = test system: K. pneumoniae (ATCC 27736); assay: microbe, parasite or virus in culture; type: cell-based; conditions: for Minimum inhibitory conc. (MIC) against bacteria 10: ATCC 27736; for MIC: K. pneumoniae (ATCC 27736), means of three independent experiments each in duplicate ± SD, read-out: Minimum inhibitory conc. (MIC) against bacteria 10
Text: as §1, §2

[3] = test system: P. aeruginosa (ATCC BAA-427); assay: microbe, parasite or virus in culture; type: cell-based; conditions: for Minimum inhibitory conc. (MIC) against bacteria 8: ATCC BAA-427; for MIC: P. aeruginosa (ATCC BAA-427), means of three independent experiments each in duplicate ± SD, read-out: Minimum inhibitory conc. (MIC) against bacteria 8
Text: as §1, §2

[4] = test system: Staphylococcus aureus (ATCC 25923); assay: microbe, parasite or virus in culture; type: cell-based; conditions: for Minimum inhibitory conc. (MIC) against bacteria 1: ATCC 25923; for MIC: Staphylococcus aureus (ATCC 25923), means of three independent experiments each in duplicate ± SD, read-out: Minimum inhibitory conc. (MIC) against bacteria 1
Text: as §1, §2

[5] = test system: Staphylococcus aureus (ATCC 29213); assay: microbe, parasite or virus in culture; type: cell-based; conditions: for Minimum inhibitory conc. (MIC) against bacteria 2: ATCC 29213; for MIC: Staphylococcus aureus (ATCC 29213), means of three independent experiments each in duplicate ± SD, read-out: Minimum inhibitory conc. (MIC) against bacteria 2
Text: as §1, §2

[6] = test system: Staphylococcus aureus (ATCC 1708 MRSA); assay: microbe, parasite or virus in culture
Text: as §1, §2

[7] = test system: Staphylococcus aureus (ATCC 33592 Gentamycin Resistant); assay: microbe, parasite or virus in culture
Text: as §1, §2

[8] = test system: Staphylococcus aureus (ATCC 700698 MRSA); assay: microbe, parasite or virus in culture
Text: as §1, §2

[9] = test system: Staphylococcus aureus (ATCC 700699 MRSA); assay: microbe, parasite or virus in culture
Text: as §1, §2

[10] = test system: Staphylococcus aureus (ATCC BAA-44 MRSA); assay: microbe, parasite or virus in culture
Text: as §1, §2

[11] = test system: E. coli (ATCC 25922); assay: Antibacterial activity (MIC), liquid culture in 96-well microtiter plates; type: cell-based; conditions: read-out: Minimum inhibitory conc. (MIC) against bacteria 11
Text: as §1, §2

[12] = test system: human red blood cells (hRBCs); type: cell-based
Text: Cytotoxic activity of piscidin-1 and its designed analogs was examined by assaying the lysis of human red blood cells (hRBCs) and the viability of murine 3T3 cells in presence of these peptides. […] Introduction of D-lysine (dK)residues instead of threonine residues at 15th & 21st positions further reduced the haemolytic activity of piscidin-1 (Fig. 1A). Overall, haemolytic activity of these peptides against hRBCs followed the order piscidin-1 > T15K-piscidin-1 > T15dK-piscidin-1 > T15,21K-piscidin-1 > T15,21dK-piscidin-1. Viability of 3T3 cells as determined by MTT assay in the presence of these peptides followed the same trend as their haemolytic activity (Fig. 1B).
Haemolytic activity of the peptides against human red blood cells in PBS was performed by assaying the ability of the peptides to lyse the hRBCs[24][48]. For this purpose, fresh human red blood cells (hRBCs) were collected in the presence of an anti-coagulant from a healthy volunteer. After washing the blood three times with PBS haemolytic activity of the peptides were determined as reported previously. Methodology of our experiment with human blood was in accordance with relevant guidelines and regulations of CSIR-central drug research institute ethics committee and was approved by it with approval No. CDRI/IEC/2014/A5. Further, informed consent was obtained from the healthy volunteer before collection of blood as per the guideline of our Institutional ethics committee.

[13] = test system: E. coli 0111:B4 LPS-administered mice; assay: In vivo anti-LPS activity: survival of LPS-administered mice (septic shock); conditions: BALB/c mice, monitored 7 days
Description: Septic shock in BALB/c mice was induced by intraperitoneal (i.p.) injection of E. coli LPS (12 mg/kg) followed by i.p. injection of T15,21K-piscidin-1 (0.5 mg/Kg) or T15,21dK-piscidin-1 (1 mg/Kg) or polymyxin B (1 mg/Kg) ~5 min later. Mice treated with only saline was taken as control. Survival of the animals (n = 5) was monitored for 7 days (***p < 0.0001, log-rank test).
Polymyxin B was taken as the positive control and the experiments were performed as reported earlier[14][30][31].
In vivo studies, treat ment of Mice
Female BALB/c mice (National laboratory animal centre, central drug research institute,
Lucknow) we re given a s tandard laborato r y diet an d water ad libitum and housed under controlled
environmental conditions. The mice wer e approx imatel y 25 g each at the st art of experiments. All
the mice were divided into experimental groups for the administration of LPS and peptides. Mice
were treated with 12 m g/ kg E. coli 0111: B4 LPS i n presen ce and in absen ce of peptide in different
experimental groups. The mice treated with saline onl y, in absence of LP S were considered as
experimental controls. To study the efficacy of a peptide in neutralizing LPS-induced pro-
inflammatory responses in mice ~5 min post LPS treatment, the respective peptide was
administered i.p. at a site other than the one, used for LPS injection. […] Survival of mice was
monitored for 7 da ys. Survival of mice was also mo nitored following th e treatment of onl y p eptides
for investigating their toxic effects.

[14] = 0.5 mg/kg, no LPS; BALB/c mice; data not shown
[15] = test system: hRBCs; assay: Localization of NBD-labelled peptides onto hRBCs by confocal microscopy, quantitative fluorescence; type: cell-based, human; conditions: NBD-labelled peptides ~10.0 μM, at least 25 cells analysed
Text: Figure 3 Confocal laser scanning microscopy to look into the localization of piscidin-1 and its selected analogs onto E. coli and hRBCs. […] Fluorescence and DIC images for treatment of different cells with each of the peptides are shown as marked on top of the respective panel. Panels (C) and (D) show the quantitative analysis of fluorescence intensity of E. coli and hRBCsbound to NBD-labeled piscidin-1, T15,21K-piscidin-1 and T15,21dK-piscidin-1 respectively.
The localization of NBD-labeled piscidin-1, T15,21K-piscidin-1 and T15,21dK-piscidin-1 was also studied onto hRBCs by confocal microscopy. […] Quantitative analyses of the confocal microscopic fluorescence images were carried out. At least 25 cells from fluorescence images for each set of experiments were included in the analysis. The results are shown at the bottom of the fluorescence images of the respective cells (Fig. 3C and D).

[16] = Staphylococcus aureus (ATCC 1708 MRSA), means of three independent experiments each in duplicate ± SD
[17] = Staphylococcus aureus (ATCC 33592 Gentamycin Resistant), means of three independent experiments each in duplicate ± SD
[18] = Staphylococcus aureus (ATCC 700698 MRSA), means of three independent experiments each in duplicate ± SD
[19] = Staphylococcus aureus (ATCC 700699 MRSA), means of three independent experiments each in duplicate ± SD
[20] = Staphylococcus aureus (ATCC BAA-44 MRSA), means of three independent experiments each in duplicate ± SD
[21] = means of three independent experiments each in duplicate ± SD

Compound	Minimum inhibitory conc. (MIC) against bacteria 9 [1]	Minimum inhibitory conc. (MIC) against bacteria 10 [2]	Minimum inhibitory conc. (MIC) against bacteria 8 [3]	Minimum inhibitory conc. (MIC) against bacteria 1 [4]	Minimum inhibitory conc. (MIC) against bacteria 2 [5]	MIC [11, 21]	HC50, peptide concentration leading to 50% lysis of human RBC [12]	Minimum inhibitory conc. (MIC) against bacteria 7 ([6]; ATCC 1708)	Minimum inhibitory conc. (MIC) against bacteria 4 ([7]; ATCC 33592)	Minimum inhibitory conc. (MIC) against bacteria 6 ([8]; ATCC 700698)	Minimum inhibitory conc. (MIC) against bacteria 3 ([9]; ATCC 700699)	Minimum inhibitory conc. (MIC) against bacteria 5 ([10]; ATCC BAA-44)	also measured
H-FFHHIFRGIVHVGKKIHRLVTG-NH2 [T15K Piscidin-1]	8.5 ± 1.2 µM	3.2 ± 0.4 µM	7.0 ± 1.0 µM	1.25 ± 0.3 µM	2.5 ± 0.4 µM	3.5 µM	46 µM						Minimum inhibitory conc. (MIC) against bacteria 7 [6, 16]: 2.5 ± 0.4 µM; Minimum inhibitory conc. (MIC) against bacteria 4 [7, 17]: 1.25 ± 0.3 µM; Minimum inhibitory conc. (MIC) against bacteria 6 [8, 18]: 2.5 ± 0.4 µM; Minimum inhibitory conc. (MIC) against bacteria 3 [9, 19]: 2.5 ± 0.4 µM; Minimum inhibitory conc. (MIC) against bacteria 5 [10, 20]: 1.25 ± 0.3 µM
H-FFHHIFRGIVHVGKTIHRLVTG-NH2 [Piscidin-1]	8.0 ± 1.0 µM	3.8 ± 0.5 µM	6.0 ± 0.7 µM	1.25 ± 0.3 µM	2.5 ± 0.4 µM	3.0 µM	15 µM	2.5 ± 0.4 µM	2.5 ± 0.4 µM	2.5 ± 0.4 µM	5.0 ± 0.7 µM	2.5 ± 0.4 µM	
CC[C@H](C)[C@H](NC(=O)CNC(=O)[C@H](CCCNC(=N)N)NC(=O)[C@H](Cc1ccccc1)NC(=O)[C@@H](NC(=O)[C@H](Cc1c[nH]cn1)NC(=O)[C@H](Cc1c[nH]cn1)NC(=O)[C@H](Cc1ccccc1)NC(=O)[C@@H](N)Cc1ccccc1)[C@@H](C)CC)C(=O)N[C@H](C(=O)N[C@@H](Cc1c[nH]cn1)C(=O)N[C@H](C(=O)NCC(=O)N[C@@H](CCCCN)C(=O)N[C@H](CCCCN)C(=O)N[C@H](C(=O)N[C@@H](Cc1c[nH]cn1)C(=O)N[C@@H](CCCNC(=N)N)C(=O)N[C@@H](CC(C)C)C(=O)N[C@H](C(=O)N[C@H](C(=O)NCC(N)=O)[C@@H](C)O)C(C)C)[C@@H](C)CC)C(C)C)C(C)C [T15dK Piscidin-1] (HELM PEPTIDE1{F.F.H.H.I.F.R.G.I.V.H.V.G.K.[dK].I.H.R.L.V.T.G.[am]}$$$$V2.0)	9.0 ± 1.3 µM (≈ 23.4 µg/mL)	3.6 ± 0.5 µM (≈ 9.35 µg/mL)	7.5 ± 1.0 µM (≈ 19.5 µg/mL)	2.5 ± 0.4 µM (≈ 6.5 µg/mL)	2.5 ± 0.4 µM (≈ 6.5 µg/mL)	4.0 µM (≈ 10.4 µg/mL)	125 µM	2.5 ± 0.4 µM (≈ 6.5 µg/mL)	2.5 ± 0.4 µM (≈ 6.5 µg/mL)	5.0 ± 0.7 µM (≈ 13 µg/mL)	10.0 ± 1.4 µM (≈ 26 µg/mL)	2.5 ± 0.4 µM (≈ 6.5 µg/mL)	
polymyxin B [reference compound]													mortality rate of LPS-administered mice ([13]; single dose 1.0 mg/kg i.p. after LPS 12 mg/kg): zero
H-FFHHIFRGIVHVGKKIHRLVKG-NH2 [T15,21K Piscidin-1]	5.0 ± 0.7 µM	3.0 ± 0.4 µM	5.0 ± 0.7 µM	1.25 ± 0.3 µM	2.5 ± 0.4 µM	2.0 µM	200 µM	1.25 ± 0.3 µM	2.5 ± 0.4 µM	2.5 ± 0.4 µM	2.5 ± 0.4 µM	1.25 ± 0.3 µM	survival of LPS-administered mice ([13]; peptide 0.5 mg/Kg i.p. ~5 min after LPS 12.0 mg/Kg i.p., n = 5): 100%; mortality rate of LPS-administered mice ([13]; single dose 0.5 mg/kg i.p. after LPS 12 mg/kg): zero; survival of control mice treated only with peptide [14]: 100%
Gentamycin [reference compound]						3.14 µM							MIC [1]: 0.048 µM; MIC [2]: 3.26 µM; MIC [3]: 1.46 µM; MIC [4]: 0.8 µM; MIC [5]: 1.6 µM; Minimum inhibitory conc. (MIC) against bacteria 7 [6, 16]: 3.2 µM; Minimum inhibitory conc. (MIC) against bacteria 4 [7, 17]: >100 µM; Minimum inhibitory conc. (MIC) against bacteria 6 [8, 18]: >100 µM; Minimum inhibitory conc. (MIC) against bacteria 3 [9, 19]: >100 µM; Minimum inhibitory conc. (MIC) against bacteria 5 [10, 20]: >50 µM
X-FFHHIFRGIVHVGKkIHRLVkG–amide [NBD-T15,21dK-piscidin-1, T15,21dK-piscidin-1 labelled at its N-terminus by NBD]													fold lower fluorescence of hRBCs bound to peptide than cells bound to NBD-labeled piscidin-1 [15]: ~7.5 fold
X-FFHHIFRGIVHVGKKIHRLVKG–amide [NBD-T15,21K-piscidin-1, T15,21K-piscidin-1 labelled at its N-terminus by NBD]													fold lower fluorescence of hRBCs bound to peptide than cells bound to NBD-labeled piscidin-1 [15]: about 5 fold
CCn1cc(C(=O)O)c(=O)c2cc(F)c(N3CCNCC3)cc21 [Norfloxacin, reference compound]													MIC ([1]; Bacillus subtilis, ATCC6633): 0.39 µM (≈ 0.125 µg/mL); MIC ([2]; Klebsiella pneumoniae, ATCC27736): 0.125 µM (≈ 0.0399 µg/mL); MIC ([3]; Pseudomonas aeruginosa, ATCCBAA427): 2.19 µM (≈ 0.699 µg/mL); MIC ([4]; ATCC25923): 1.22 µM (≈ 0.39 µg/mL); MIC ([5]; ATCC29213): 2.44 µM (≈ 0.779 µg/mL); MIC ([6]; Staphylococcus aureus, ATCC1708|MRSA, read-out: Minimum inhibitory conc. (MIC) against bacteria 7): > 150 µM; MIC ([7]; Staphylococcus aureus, ATCC33592, read-out: Minimum inhibitory conc. (MIC) against bacteria 4): 2.44 µM (≈ 0.779 µg/mL); MIC ([8]; Staphylococcus aureus, ATCC700698|MRSA, read-out: Minimum inhibitory conc. (MIC) against bacteria 6): > 150 µM; MIC ([9]; Staphylococcus aureus, ATCC700699|MRSA, read-out: Minimum inhibitory conc. (MIC) against bacteria 3): > 150 µM; MIC ([10]; Staphylococcus aureus, ATCCBAA44|MRSA, read-out: Minimum inhibitory conc. (MIC) against bacteria 5): 39 µM (≈ 12.5 µg/mL); MIC ([11]; Escherichia coli, ATCC25922, means of three independent experiments each in duplicate ± SD): 0.125 µM (≈ 0.0399 µg/mL)
